Source: patent publication US8304450B2, “Stable pharmaceutical compositions with docetaxel” (Quiral Quimica Do Brasil S.A., priority 2003, dated 2012)

What was measured:
[1] = Comparative stability study of solutions of docetaxel tri-hydrate and anhydrous forms in polysorbate 80 with and without acid; type: physicochemical; conditions: solutions in polyethoxylated sorbitol previously or posteriorly acidified
[2] = Comparative stability study between the tri-hydrate and anhydrous forms of docetaxel (bulk substance); type: physicochemical; parameters: Assay (H2O): unit not given here; conditions: for A % Docetaxel / A % Impurities (unknown) / Assay (H2O): bulk substance; for A % Docetaxel: amber glass vials under N2 over P2O5, −5 to 0° C.; for A % Docetaxel / A % Impurities (unknown): HPLC; for A % Impurities (unknown) / Assay (H2O): −5 to 0° C.; for Assay (H2O): Karl Fischer titration
Method: Comparative stability study between the tri-hydrate and anhydrous forms of (2R,3S)4-acetoxy-2-α-benzoyloxy-5β-20-epoxy-1,7-β-10-β-tri-hydroxy-9-oxo-tax-11-en-13α-il 3-tert-butoxycarbonylamino-2-hydroxy-3-phenylpropionate
Analysis was realized by HPLC using a Waters Spherisorb® C-18, 250×5 mm column, mobile phase MeOH:H2O 85:15, flow 1.5 mL/min. Related impurities reported as A % discounting the peak due to the dead volume. Samples were stored in amber glass vials under N2 in a dessicator over P2O5 maintained between −5 and 0° C.

[3] = statement of patent application PI 9508789-3; cited from earlier work
[4] = stored under adequate and controlled conditions

Row | SMILES | A % Docetaxel ([2]; 0 months) [A %] | A % Impurities (unknown) ([2]; 0 months) [A %] | Assay (H2O) ([2]; 0 months) | A % Docetaxel ([2]; 3 months) [A %] | A % Impurities (unknown) ([2]; 3 months) [A %] | Assay (H2O) ([2]; 3 months) | A % Docetaxel ([2]; 6 months) [A %] | A % Impurities (unknown) ([2]; 6 months) [A %] | Assay (H2O) ([2]; 6 months) | A % Docetaxel ([2]; 12 months) [A %] | A % Impurities (unknown) ([2]; 12 months) [A %] | Assay (H2O) ([2]; 12 months) | A % Docetaxel ([2]; 18 months) [A %] | A % Impurities (unknown) ([2]; 18 months) [A %] | Assay (H2O) ([2]; 18 months) | A % Docetaxel ([2]; 24 months) [A %] | A % Impurities (unknown) ([2]; 24 months) [A %] | Assay (H2O) ([2]; 24 months) | other results
1 | CC(=O)O[C@@]12CO[C@@H]1C[C@H](O)[C@@]1(C)C(=O)[C@H](O)C3=C(C)[C@@H](OC(=O)[C@H](O)[C@@H](NC(=O)OC(C)(C)C)c4ccccc4)C[C@@](O)([C@@H](OC(=O)c4ccccc4)[C@H]21)C3(C)C [Docetaxel (anhydrous), (2R,3S)4-acetoxy-2-α-benzoyloxy-5β-20-epoxy-1,7-β-10-β-tri-hydroxy-9-oxo-tax-11-en-13α-il 3-tert-butoxycarbonylamino-2-hydroxy-3-phenylpropionate] | 99.28 | 0.72 | 0.10 | 99.21 | 0.79 | 0.11 | 99.26 | 0.73 | 0.12 | 98.93 | 1.07 | 0.09 | 98.65 | 1.35 | 0.12 | 98.29 | 1.71 | 0.13 | stability conferred to the pharmaceutical finished dosage form [1]: equal or superior stability; re-hydration on storage [2, 4]: does not re-hydrate to a significant degree; stability of anhydrous product compared with tri-hydrate [2, 4]: stability equal or superior to the tri-hydrate
2 | CC(=O)O[C@@]12CO[C@@H]1C[C@H](O)[C@@]1(C)C(=O)[C@H](O)C3=C(C)[C@@H](OC(=O)[C@H](O)[C@@H](NC(=O)OC(C)(C)C)c4ccccc4)C[C@@](O)([C@@H](OC(=O)c4ccccc4)[C@H]21)C3(C)C [Docetaxel (tri-hydrate), tri-hydrate of (2R,3S)4-acetoxy-2-α-benzoyloxy-5β-20-epoxy-1,7-β-10-β-tri-hydroxy-9-oxo-tax-11-en-13α-il 3-tert-butoxycarbonylamino-2-hydroxy-3-phenylpropionate] | 99.51 | 0.49 | 6.32 | 99.23 | 0.77 | 6.35 | 99.30 | 0.70 | 6.21 | 98.91 | 1.09 | 6.42 | 98.72 | 1.28 | 6.31 | 98.21 | 1.79 | 6.29 | stability of tri-hydrate relative to anhydrous product [3]: clearly superior stability relative to the anhydrous product
